Patent US20210179598A1, “SELECTIVE JAK2 INHIBITOR AND APPLICATION THEREOF” (EAST CHINA UNIVERSITY OF SCIENCE AND TECHNOLOGY, priority 2018, published 2021)
Like-named read-outs stand apart in the source and are kept apart here.

How the values were obtained:
[1] = system: SET 2 (JAK2 V617F) cells; assay: CCK-8 cell proliferation detection, SET2 cells; format: cell-based; settings: Homo sapiens, Table 2, CCK-8, 72 hrs
Description: (§1) WST-8 (chemical name: 2-(2-methoxy-4-nitrophenyl)-3-(4-nitrophenyl)-5-(2,4-disulfo benzene)-2H-tetrazolium monosodium), which is reduced to a highly water-soluble yellow formazan product (Formazan dye) by the dehydrogenase in cells under the action of the electron carrier dimethyl 1-methoxy-5-methylphenazinium sulfate (1-Methoxy PMS). The amount of the produced formazan is proportional to the number of living cells. Therefore, the survival rate of cells can be calculated indirectly by measuring the absorbance at 450 nm. The half inhibition rate of the compound on the proliferation of H3122, SET2, HEL cells can be determined by the CCK-8 method.
(§2) RPIM medium containing 10% FBS was used to culture cells (100 μL per well), and 3500 cells were inoculated into a 96-well plate, and placed in a 37° C., 5% CO2 incubator for 24 h, until 50%-70% of the cell confluence was achieved. Drugs with different concentration gradients were added respectively, and incubated for another 72 hrs. […] And finally the absorption value of each well was measured at 450 nm.
(§3) NOTE: HEL, SET-2, H3122 cells were purchased from ATCC (American type culture collection), Z′-LYTETM kinase assay platform was purchased from Invitrogen, HTRF KinEASETM-TK was purchased from Cisbio, and Cell Counting Kit-8 was purchased from Beyotime.

[2] = system: H3122 cells; assay: CCK-8 cell proliferation detection, H3122 cells; format: cell-based; settings: Homo sapiens, Table 2, CCK-8, 72 hrs
Description: as §1, §2, §3

[3] = system: HEL (JAK2 V617F) cells; assay: CCK-8 cell proliferation detection, HEL cells; format: cell-based; settings: Homo sapiens, Table 2, CCK-8, 72 hrs
Description: as §1, §2, §3

[4] = target: ALK (Homo sapiens, UniProt Q9UM73); assay: ALK kinase IC50 test (HTRF); format: biochemical; settings: Table 2
Chain of ALK (Q9UM73 19-1620, species assumed): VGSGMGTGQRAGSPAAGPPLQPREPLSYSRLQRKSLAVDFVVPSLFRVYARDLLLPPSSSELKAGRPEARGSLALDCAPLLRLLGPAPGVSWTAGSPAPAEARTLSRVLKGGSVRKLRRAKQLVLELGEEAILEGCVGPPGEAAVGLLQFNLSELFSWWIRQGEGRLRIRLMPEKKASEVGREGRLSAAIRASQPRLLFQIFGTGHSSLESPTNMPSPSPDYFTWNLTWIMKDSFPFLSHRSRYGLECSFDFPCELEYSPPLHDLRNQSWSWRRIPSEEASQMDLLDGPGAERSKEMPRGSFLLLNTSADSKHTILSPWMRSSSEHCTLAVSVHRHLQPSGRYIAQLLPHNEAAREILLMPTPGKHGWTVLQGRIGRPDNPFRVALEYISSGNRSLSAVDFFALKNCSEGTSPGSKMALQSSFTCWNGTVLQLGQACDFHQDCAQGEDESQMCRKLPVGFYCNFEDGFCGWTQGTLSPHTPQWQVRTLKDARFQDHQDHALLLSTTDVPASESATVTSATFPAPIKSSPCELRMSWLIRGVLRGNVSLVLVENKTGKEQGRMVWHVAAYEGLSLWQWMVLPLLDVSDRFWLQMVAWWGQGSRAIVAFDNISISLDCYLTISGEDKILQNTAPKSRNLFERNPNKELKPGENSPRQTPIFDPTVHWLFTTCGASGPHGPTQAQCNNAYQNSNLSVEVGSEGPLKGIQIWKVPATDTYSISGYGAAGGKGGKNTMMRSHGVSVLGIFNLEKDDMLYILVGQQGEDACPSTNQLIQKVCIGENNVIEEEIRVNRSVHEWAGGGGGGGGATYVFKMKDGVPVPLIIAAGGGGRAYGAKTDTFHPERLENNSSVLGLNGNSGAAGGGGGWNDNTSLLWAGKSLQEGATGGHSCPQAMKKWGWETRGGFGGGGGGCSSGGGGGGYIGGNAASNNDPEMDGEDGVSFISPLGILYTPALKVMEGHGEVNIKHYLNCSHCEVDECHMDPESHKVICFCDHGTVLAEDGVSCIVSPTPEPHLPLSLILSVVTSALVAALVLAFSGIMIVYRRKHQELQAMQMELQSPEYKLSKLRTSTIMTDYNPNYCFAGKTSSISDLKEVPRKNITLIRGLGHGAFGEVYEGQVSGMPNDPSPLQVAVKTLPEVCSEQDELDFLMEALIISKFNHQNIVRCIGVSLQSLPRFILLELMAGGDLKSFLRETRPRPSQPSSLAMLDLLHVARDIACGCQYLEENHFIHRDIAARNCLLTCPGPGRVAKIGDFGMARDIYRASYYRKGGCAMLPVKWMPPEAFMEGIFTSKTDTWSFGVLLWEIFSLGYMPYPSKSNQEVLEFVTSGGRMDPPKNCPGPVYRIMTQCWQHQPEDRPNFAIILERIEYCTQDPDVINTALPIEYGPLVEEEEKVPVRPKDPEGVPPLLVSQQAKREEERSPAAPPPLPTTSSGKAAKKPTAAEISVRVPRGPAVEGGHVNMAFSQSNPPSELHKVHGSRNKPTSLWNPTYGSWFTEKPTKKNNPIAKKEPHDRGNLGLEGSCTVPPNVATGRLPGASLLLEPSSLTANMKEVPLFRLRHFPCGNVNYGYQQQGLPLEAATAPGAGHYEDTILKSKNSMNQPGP
Description: According to HTRF method, the peptide substrate was labeled with a biotin, which can specifically bind to XL665-labeled streptavidin. When the kinase adds a phosphate group to the polypeptide substrate in the first step, its Eu-labeled specific phosphorylation antibody can recognize and bind to it. In this way, in the second step of detection, a complex of XL665-labeled streptavidin, phosphorylated peptide substrate and Eu-labeled phosphorylation antibody can be formed. Since the distance between XL665 and Eu is short, FRET can be formed. On the other hand, Eu has a relatively long fluorescence half-life and can be applied to time-resolved fluorescence detection.
10 μL of reaction system, 4 μL test compound, 2 μL kinase, 2 μL biotin-labeled substrate and 2 μL ATP, was added into a 384-well plate, shaken for 30 s, and incubated at room temperature for 1 hour. 5 μL of Eu-labeled phosphorylation site-specific antibody and 5 μL of XL665-labeled streptavidin were added. The reaction system was shaken for 30 s, and incubated at room temperature for 1 hour. A microplate reader was used to detect the fluorescence signal. The inhibition rates of the compounds under 8 concentration gradients were determined, and the IC50 value of each compound was calculated by fitting curve with Origin 8.0. […] Each experiment was performed in triplicate.
as §3

[5] = target: JAK2 (Homo sapiens, UniProt O60674); assay: JAK2 kinase activity test at molecular level (Z'-LYTE FRET); format: biochemical
Chain of JAK2 (O60674 whole entry): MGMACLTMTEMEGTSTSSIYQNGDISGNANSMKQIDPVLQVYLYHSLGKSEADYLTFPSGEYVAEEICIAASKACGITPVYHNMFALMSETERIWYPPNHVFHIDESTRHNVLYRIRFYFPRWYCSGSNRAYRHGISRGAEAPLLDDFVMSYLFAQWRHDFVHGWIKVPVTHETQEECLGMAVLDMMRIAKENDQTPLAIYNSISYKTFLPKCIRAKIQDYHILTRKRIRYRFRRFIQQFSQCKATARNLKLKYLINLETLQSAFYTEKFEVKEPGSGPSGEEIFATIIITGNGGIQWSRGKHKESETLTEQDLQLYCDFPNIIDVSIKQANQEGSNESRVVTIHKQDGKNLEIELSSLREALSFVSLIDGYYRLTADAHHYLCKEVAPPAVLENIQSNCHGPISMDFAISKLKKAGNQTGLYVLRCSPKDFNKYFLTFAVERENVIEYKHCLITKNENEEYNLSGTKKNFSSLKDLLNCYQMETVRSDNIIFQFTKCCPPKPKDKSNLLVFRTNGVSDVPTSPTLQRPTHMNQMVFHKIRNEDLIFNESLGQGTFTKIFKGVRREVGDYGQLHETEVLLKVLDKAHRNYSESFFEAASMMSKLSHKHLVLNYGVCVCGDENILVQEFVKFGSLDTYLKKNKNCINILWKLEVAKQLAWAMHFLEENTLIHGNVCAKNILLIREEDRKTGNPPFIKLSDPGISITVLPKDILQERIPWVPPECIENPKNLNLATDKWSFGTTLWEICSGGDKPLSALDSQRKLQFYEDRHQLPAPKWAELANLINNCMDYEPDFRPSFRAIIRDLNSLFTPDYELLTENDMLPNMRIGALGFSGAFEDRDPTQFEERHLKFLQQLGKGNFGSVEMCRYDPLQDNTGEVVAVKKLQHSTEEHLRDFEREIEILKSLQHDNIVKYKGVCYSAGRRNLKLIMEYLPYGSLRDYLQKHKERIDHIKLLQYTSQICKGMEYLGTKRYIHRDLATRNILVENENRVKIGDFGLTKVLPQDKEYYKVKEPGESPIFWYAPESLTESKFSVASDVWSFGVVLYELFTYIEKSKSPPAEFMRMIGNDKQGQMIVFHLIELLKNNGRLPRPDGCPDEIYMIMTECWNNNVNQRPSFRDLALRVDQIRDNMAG
Protocol: JAK2 can catalyze the transfer of a phosphate group of adenosine triphosphate (ATP) to a polypeptide substrate, and the polypeptide substrate is labeled with two fluorescent groups, coumarin and fluorescein. […] Therefore, the inhibition rates of different compounds can be calculated by measuring the ratio of enzyme-catalyzed substrate phosphorylation percentages.
10 μL reaction system, 2.5 μL test compound, 5 μL kinase/peptide substrate mixture and 2.5 μL ATP solution were added into a 384-well plate, shaken for 30 s, and incubated at room temperature for 1 hour. 5 μL of proteolytic enzyme and 15 μL of the reaction system were added and shaken for 30 s and incubated at room temperature for 1 h. 5 μL of stop reagent was added, and the reaction system with a total volume of 20 μL was shaken for 30 seconds. A microplate reader was used to detect the fluorescence signal. […] The inhibition rates of the compound at 7 concentration gradients were determined, and the IC50 value for each compound was calculated by fitting curve with Origin 8.0.
as §3

[6] = Table 1, read-out: JAK2 kinase activity IC50

| SMILES | IC50 ([2]; NCI-H3122) | IC50 [4] | melting point | IC50 [5, 6] | IC50 ([5]; Table 2, read-out: JAK2 IC50) | IC50 ([2]; NCI-H3122, 72 h) | IC50 ([1]; SET-2) | IC50 [3] | IC50 ([1]; SET-2, 72 h) | IC50 ([3]; 72 h) |
| --- | --- | --- | --- | --- | --- | --- | --- | --- | --- | --- |
| C[C@@H](Oc1cc(-c2cccnc2)cnc1N)c1c(Cl)ccc(F)c1Cl [WWQ-189, (R)-5-[1-(2,6-dichloro-3-fluorophenyl)ethoxy]-[3,3′-dipyridine]-6-amine] | 6.32 ± 0.128 µM | > 10000 nM | 158.8 to 159.8 °C | 3050 ± 204 nM | – | – | 11.1 µM | 13.2 µM | – | – |
| C[C@@H](Oc1cc(-c2ccc(N3CCNCC3)nc2)cnc1N)c1c(Cl)ccc(F)c1Cl [WWQ-191, (R)-5-[1-(2,6-dichloro-3-fluorophenyl)ethoxy]-6′-piperazin-[3,3′-dipyridine]-6-amine] | 1.17 ± 0.093 µM | 3440 nM | 197.8 to 198.5 °C | 804 ± 9 nM | – | – | 3.22 µM | 30.1 µM | – | – |
| CC(Oc1cc(-c2cnn(C3CCNCC3)c2)cnc1N)C1CCCCC1 (centres unmarked) [WWQ-197, 4-{3-[1-cyclohexaneethoxy]-2-aminopyridine}pyrazol-1-piperidine] | 20.7 ± 0.394 µM | > 10000 nM | 192.2 to 193.4 °C | 3400 ± 431 nM | 3400 ± 431 nM | – | 7.02 µM | 12.9 µM | – | – |
| CC(Oc1cc(-c2ccccc2)cnc1N)c1cc(F)ccc1Cl (centres unmarked) [WWQ-1093-75, 3-(1-(2-chloro-5-fluorophenyl)ethoxy)-2-amino-5-phenylpyridine] | 14.4 ± 4.21 µM | > 10000 nM | 199 to 199.8 °C | 461 ± 2 nM | 461 ± 2 nM | – | 33.2 µM | 24.5 µM | – | – |
| CCOC(C)n1cc(-c2cnc(N)c(OC(C)c3cc(F)ccc3Cl)c2)cn1 (centres unmarked) [MXY-032-91] | 2.08 ± 0.803 µM | 5280 nM | – | – | 157 ± 31 nM | – | 6.34 µM | 4.56 µM | – | – |
| CC(Oc1cc(-c2nccs2)cnc1N)c1cc(F)ccc1Cl (centres unmarked) [XFL-169] | > 100 µM | > 10000 nM | – | – | 1120 ± 14 nM | – | 8.17 µM | 15.9 µM | – | – |
| CC(Oc1cc(-c2cn(C)c3ccccc23)cnc1N)c1cc(F)ccc1Cl (centres unmarked) [MXY-89] | 6.874 ± 0.022 µM | 7890 nM | – | – | 695 ± 2 nM | – | 11 µM | 2.44 µM | – | – |
| CC(Oc1cc(-c2cnoc2)cnc1N)c1cc(F)ccc1Cl (centres unmarked) [XFL-137] | > 100 µM | > 10000 nM | – | – | > 10000 nM | – | > 10 µM | > 50 µM | – | – |
| CC(Oc1cc(Nc2nccc3ccccc23)cnc1N)c1cc(F)ccc1Cl (centres unmarked) [MXY-032-87] | 17.4 ± 0.25 µM | > 10000 nM | – | – | > 10000 nM | – | > 50 µM | 9.47 µM | – | – |

Further lines, with some results ahead:

| IC50 ([2]; NCI-H3122) | IC50 [4] | melting point | IC50 [5, 6] | IC50 ([5]; Table 2, read-out: JAK2 IC50) | IC50 ([2]; NCI-H3122, 72 h) | SMILES | IC50 ([1]; SET-2) | IC50 [3] | IC50 ([1]; SET-2, 72 h) | IC50 ([3]; 72 h) |
| --- | --- | --- | --- | --- | --- | --- | --- | --- | --- | --- |
| 0.956 µM | 1250 nM | 192.1 to 193.4 °C | 35 ± 1 nM | 35 ± 1 nM | – | CC(Oc1cc(-c2cccc(C3CCNCC3)c2)cnc1N)c1cc(F)ccc1Cl (centres unmarked) [WWQ-1093-91] | 2.36 µM | 8.77 µM | – | – |
| 4.83 ± 0.082 µM | 423 nM | 189.8 to 191.3 °C | 26.5 ± 26.5 nM | – | – | COc1ccc(F)c(Cl)c1C(C)Oc1cc(-c2cnn(C3CCNCC3)c2)cnc1N (centres unmarked) [WWQ-175, 4-{3-[1-(2-chloro-3-fluoro-6-methoxyphenyl)ethoxy]-2-aminopyridine}pyrazol-1-piperidine] | 0.916 µM | 11.3 µM | – | – |
| > 10 µM | 545 nM | 189.8 to 191 °C | 48 ± 8 nM | 48 ± 8 nM | – | CC(Oc1cc(-c2ccc(C3CCNCC3)cc2)cnc1N)c1cc(F)ccc1Cl (centres unmarked) [WWQ-1093-87] | 9.7 µM | 35.4 µM | – | – |
| 7.18 ± 0.838 µM | 855 nM | 188.1 to 190.4 °C | 64.7 ± 0.4 nM | – | – | C[C@@H](Oc1cc(-c2cnn(C3CCOCC3)c2)cnc1N)c1c(Cl)ccc(F)c1Cl [WWQ-1093-27] | 1.68 µM | 8.05 µM | – | – |
| 1.14 ± 0.012 µM | 498 nM | 191.1 to 193.7 °C | 37 ± 3 nM | 37 ± 3 nM | – | CC(Oc1cc(-c2ccc(N3CCNCC3)cc2)cnc1N)c1cc(F)ccc1Cl (centres unmarked) [WWQ-1093-85] | 8.26 µM | 35.8 µM | – | – |
| < 0.5 µM | 334 nM | 190.8 to 191.6 °C | 27 ± 2 nM | 27 ± 2 nM | – | CC(Oc1cc(-c2cccc(N3CCNCC3)c2)cnc1N)c1cc(F)ccc1Cl (centres unmarked) [WWQ-1093-89] | 2.26 µM | 8.43 µM | – | – |
| 1.45 ± 0.118 µM | 3370 nM | – | – | 844 ± 100 nM | – | Cc1n[nH]c(C)c1-c1cnc(N)c(OC(C)c2cc(F)ccc2Cl)c1 (centres unmarked) [XFL-107] | 3.35 µM | 9.14 µM | – | – |
| 3.52 ± 0.605 µM | 201 nM | – | – | 24 ± 2 nM | – | CC(Oc1cc(-c2cnn(C)c2)cnc1N)c1cc(F)ccc1Cl (centres unmarked) [XFL-111] | 7.56 µM | 9.05 µM | – | – |
| 2.1 ± 0.344 µM | 438 nM | – | – | 40.8 ± 0.6 nM | – | Cc1n[nH]cc1-c1cnc(N)c(OC(C)c2cc(F)ccc2Cl)c1 (centres unmarked) [XFL-147] | 4.05 µM | 6.15 µM | – | – |
| – | 89 nM | – | 6.7 ± 1 nM | – | 1.591 ± 0.014 µM | CC(Oc1cc(-c2cnn(C3CCNCC3)c2)cnc1N)c1cc(F)ccc1Cl (centres unmarked) [WWQ-131, 4-{3-[1-(2-chloro-5-fluorophenyl)ethoxy]-2-aminopyridine}pyrazol-1-piperidine] | – | – | 1.33 µM | 9.78 µM |
| 1.98 ± 0.84 µM | 2330 nM | – | – | 15 ± 1 nM | – | COCCCn1cc(-c2cnc(N)c(OC(C)c3cc(F)ccc3Cl)c2)cn1 (centres unmarked) [MXY-032-93] | 2.88 µM | 3.45 µM | – | – |
